Data published in PubChem BioAssay (NCI).
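Values below derive from 48-hour exposures of cells grown in 96-well plates, with endpoints linearly interpolated between the two concentrations bracketing the appropriate inhibition level. TGI: concentration producing complete growth inhibition.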

What was measured:
Experiment in all cases: growth of human tumour cells (NCI), 48 h
[1] = test system: 786-0 renal
[2] = test system: A498 renal
[3] = test system: A549 NSCLC
[4] = test system: ACHN renal
[5] = test system: CAKI-1 renal
[6] = test system: CCRF-CEM leukemia
[7] = test system: COLO 205 colon
[8] = test system: DLD-1 colon
[9] = test system: DMS 114 small cell lung
[10] = test system: DMS 273 small cell lung
[11] = test system: EKVX NSCLC
[12] = test system: HCC-2998 colon
[13] = test system: HCT-116 colon
[14] = test system: HCT-15 colon
[15] = test system: HL-60(TB) leukemia
[16] = test system: HOP-18 NSCLC
[17] = test system: HOP-62 NSCLC
[18] = test system: HOP-92 NSCLC
[19] = test system: HT29 colon
[20] = test system: IGROV1 ovarian
[21] = test system: K-562 leukemia
[22] = test system: KM12 colon
[23] = test system: KM20L2 colon
[24] = test system: LOX IMVI melanoma
[25] = test system: LXFL 529 NSCLC
[26] = test system: M14 melanoma
[27] = test system: M19-MEL melanoma
[28] = test system: MALME-3M melanoma
[29] = test system: MOLT-4 leukemia
[30] = test system: NCI-H226 lung
[31] = test system: NCI-H23 lung
[32] = test system: NCI-H460 lung
[33] = test system: NCI-H522 lung
[34] = test system: OVCAR-3 ovarian
[35] = test system: OVCAR-4 ovarian
[36] = test system: OVCAR-5 ovarian
[37] = test system: OVCAR-8 ovarian
[38] = test system: RPMI-8226 leukemia
[39] = test system: SF-268 CNS
[40] = test system: SF-295 CNS
[41] = test system: SF-539 CNS
[42] = test system: SK-MEL-2 melanoma
[43] = test system: SK-MEL-28 melanoma
[44] = test system: SK-MEL-5 melanoma
[45] = test system: SK-OV-3 ovarian
[46] = test system: SN12C renal
[47] = test system: SNB-19 CNS
[48] = test system: SNB-75 CNS
[49] = test system: SNB-78 CNS
[50] = test system: SR leukemia
[51] = test system: SW-620 colon
[52] = test system: TK-10 renal
[53] = test system: U251 CNS
[54] = test system: UACC-257 melanoma
[55] = test system: XF 498 CNS
[56] = test system: UACC-62 melanoma
[57] = test system: UO-31 renal

O=C(O)Cc1ccc2c(c1O)C(=O)c1c(ccc(CC(=O)O)c1O)C2=O
TGI [1]: > 100 µM
TGI [2]: > 100 µM
TGI [3]: > 100 µM
TGI [4]: > 100 µM
TGI [5]: > 100 µM
TGI [6]: > 100 µM
TGI [7]: > 100 µM
TGI [8]: > 100 µM
TGI [9]: > 100 µM
TGI [10]: > 100 µM
TGI [11]: > 100 µM
TGI [12]: > 100 µM
TGI [13]: > 100 µM
TGI [14]: > 100 µM
TGI [15]: > 100 µM
TGI [16]: > 100 µM
TGI [17]: > 100 µM
TGI [18]: > 100 µM
TGI [19]: > 100 µM
TGI [20]: > 100 µM
TGI [21]: > 100 µM
TGI [22]: > 100 µM
TGI [23]: > 100 µM
TGI [24]: > 100 µM
TGI [25]: > 100 µM
TGI [26]: > 100 µM
TGI [27]: > 100 µM
TGI [28]: > 100 µM
TGI [29]: > 100 µM
TGI [30]: > 100 µM
TGI [31]: > 100 µM
TGI [32]: > 100 µM
TGI [33]: > 100 µM
TGI [34]: > 100 µM
TGI [35]: > 100 µM
TGI [36]: > 100 µM
TGI [37]: > 100 µM
TGI [38]: > 100 µM
TGI [39]: > 100 µM
TGI [40]: > 100 µM
TGI [41]: > 100 µM
TGI [42]: > 100 µM
TGI [43]: > 100 µM
TGI [44]: > 100 µM
TGI [45]: > 100 µM
TGI [46]: > 100 µM
TGI [47]: > 100 µM
TGI [48]: > 100 µM
TGI [49]: > 100 µM
TGI [50]: > 100 µM
TGI [51]: > 100 µM
TGI [52]: > 100 µM
TGI [53]: > 100 µM
TGI [54]: > 100 µM
TGI [55]: > 100 µM

O=c1[nH]c2c(O)cccc2c2cc3c(c(O)c12)OCO3
TGI [1]: > 100 µM
TGI [2]: 56.5 µM
TGI [3]: > 100 µM
TGI [4]: 49.4 µM
TGI [5]: 40.8 µM
TGI [6]: 64.3 µM
TGI [7]: 34.5 µM
TGI [8]: 62.4 µM
TGI [9]: 75.8 µM
TGI [10]: 59.3 µM
TGI [11]: 77.4 µM
TGI [12]: 56.1 µM
TGI [13]: 54.1 µM
TGI [14]: > 100 µM
TGI [15]: 31.1 µM
TGI [16]: 0.877 µM
TGI [17]: 61.8 µM
TGI [18]: 63.9 µM
TGI [19]: 50.6 µM
TGI [20]: > 100 µM
TGI [21]: > 100 µM
TGI [22]: 41.2 µM
TGI [23]: 40.4 µM
TGI [24]: 38.9 µM
TGI [25]: 73.1 µM
TGI [26]: 52.4 µM
TGI [27]: 93.5 µM
TGI [28]: 56.4 µM
TGI [29]: > 100 µM
TGI [30]: 55 µM
TGI [32]: 36.6 µM
TGI [33]: 63.4 µM
TGI [34]: 45.2 µM
TGI [35]: 43.6 µM
TGI [37]: > 100 µM
TGI [38]: 92 µM
TGI [39]: 94.2 µM
TGI [40]: 44.8 µM
TGI [41]: 54.4 µM
TGI [44]: > 100 µM
TGI [45]: 84.7 µM
TGI [46]: 92.3 µM
TGI [47]: 70.5 µM
TGI [48]: > 100 µM
TGI [49]: 80.4 µM
TGI [51]: > 100 µM
TGI [52]: > 100 µM
TGI [53]: 63.4 µM
TGI [54]: 47.6 µM
TGI [56]: 71.3 µM
TGI [57]: 54.1 µM
TGI [55]: 56 µM
